Test results reported in PMC5314947 (Cancer prevention research (Philadelphia, Pa.), 2009).
Several values for one entry are separate records, joined by “and”; a condition that tells them apart may be missing. Equal values may be shown once.

Assays:
[1] = human, in vivo, po
[2] = human, in vivo, po; remark: listed apart in the source
[3] = rat, in vivo; cited from earlier work
[4] = rhesus monkey, in vivo; cited from earlier work

For `COc1cc2c(c3oc(=O)c4c(c13)CCC4=O)[C@@H]1C=CO[C@@H]1O2` [AFB1, aflatoxin B1], the “AUC_Extrap of AFB1 equivalents in plasma” value [1] was 50.9 ± 8%, the “Tmax of AFB1 equivalents in plasma” value [1] was 1.0 h and ~ 1 h and the “ka (absorption rate constant) of AFB1 equivalents in plasma” value [1] was 5.05 ± 1.10 h⁻¹. The “t1/2α (harmonic mean) of AFB1 equivalents in plasma” value [1] was 2.86 h, the “Á (disposition rate constant) of AFB1 equivalents in plasma” value [1] was 0.24 ± 0.06 h⁻¹ and the “β (disposition rate constant) of AFB1 equivalents in plasma” value [1] was 0.01 ± 0.003 h⁻¹. For the same compound, the “AFB1 dose excreted in urine in the first 72 hours” value [2] was 29.0 ± 2.31% and 34.4 ± 5.60% and 33.3 ± 2.79%, the “in situ absorption rate constant” value [3] was 5.84 ± 0.05 h⁻¹ and the “dose eliminated in urine as unbound within the first 24 hours” value [4] was ~ 30%. For the same compound, the “dose remaining in the liver” value [4] was 13.6% and the “dose remaining in the plasma” value [4] was 5.8%.
